Like-named read-outs stand apart in the source and are kept apart here.

The target of assay [1] is T1, mouse αvβ5 (Mus musculus, UniProt O70309+P43406).
T1 construct: expressed in transfected cells
Description: Cell adhesion assay, CHOK1-mαvβ5 cells on vitronectin. Type of assay: cell-based. As to conditions: FIG. 11. On the procedure: Cell adhesion assay. For plate preparation, Epic 384-well assay plates (Corning #5040) were washed with OptiMEM™ (Gibco #31985-070) and coated with murine fibronectin (Abcam #ab92784) at a concentration of 0.1 μg/well for CHO-α5KO-mαvβ1 cells; murine vitronectin (Abcam #ab92727) at 0.075 μg/well for CHO-mαvβ3 cells; or murine vitronectin at 0.125 μg/well for CHO-mαvβ5 (all at a volume of 25 μL/well in OptiMEM™), for one hour. Coating solution was then removed by flicking and plates were washed with OptiMEM™ and blocked with 25 μL/well of assay buffer (1% Ovalbumin (Sigma #A5503-10G) in OptiMEM™ containing 1×Pen-Strep (Gibco #15140-148)). A 5-minute baseline reading was taken on a Corning Epica Plate Reader (Model: Epic BT-157900) before removing the assay buffer and adding cells pre-incubated with inhibitors. The Epic™ plate reader detects cellular mass redistribution (adhesion) on the plate surface as a picometer wavelength shift over time. For inhibitor titration preparation: fivefold serial dilutions of small molecule inhibitor MK-0429 or antibody inhibitor Ab-31 were prepared in assay buffer at 4× the final concentration in a 384-well polypropylene plate in a volume of 15 μL per well, starting at a concentration of 800 nM. […]

Assay [2] addresses T2, hαvβ6 (Homo sapiens, UniProt P06756+P18564).
T2 construct: The full extracellular domains for all α and β integrin subunits; (GGGS)3 linker (C); acidic coiled-coil with cysteine (C); GG-Avitag (C); hexa-histidine tag (C); basic coiled-coil with cysteine (C); made in house; host or cells: Expi293 cells
Description: Human AlphaLISA integrin-ligand blocking assay (LAP). Format: biochemical. On the procedure: (§1) Integrin AlphaLISA assay. In the AlphaLISA integrin assays, we used a HEPES based buffer (25 mM HEPES pH 7.4, 137 mM NaCl, 1 mM MgCl2, 1 mM MnCl2, 2 mM CaCl2, 2.7 mM KCl, and 0.05% Tween 20). Optimal assay conditions were determined with a titration of the reagents for signal noise ratio (S/N), linear range, etc. For the respective integrins, we used the final concentrations described in Table 9.
(§2) Briefly, the testing antibody (8 μL) was added as a 4×(of Final testing concentration) solution in the HEPES buffer described previously into a 384w AlphaPlate™ (Perkin Elmer #6005350). Then the integrin and ligand were added sequentially as 8×(4 μL each). Plates were sealed and incubated at room temperature for two hours. Then 4×acceptor bead solution ([…]) was added, and the plates were resealed and incubated at room temperature (RT) for one hour. Finally, 4×([…]) donor beads solution was added in a darkened room and incubated for 45 minutes at room temperature. Plates were read on the Envision (Perkin Elmer) in AlphaScreen™ mode within three hours of donor bead addition.

Assay [3] deals with T3, hαvβ8 (Homo sapiens, UniProt P06756+P26012).
T3 construct: The full extracellular domains for all α and β integrin subunits; (GGGS)3 linker (C); acidic coiled-coil with cysteine (C); GG-Avitag (C); hexa-histidine tag (C); basic coiled-coil with cysteine (C); made in house; host or cells: Expi293 cells
T3 sequence (P06756 31-992 limits assumed): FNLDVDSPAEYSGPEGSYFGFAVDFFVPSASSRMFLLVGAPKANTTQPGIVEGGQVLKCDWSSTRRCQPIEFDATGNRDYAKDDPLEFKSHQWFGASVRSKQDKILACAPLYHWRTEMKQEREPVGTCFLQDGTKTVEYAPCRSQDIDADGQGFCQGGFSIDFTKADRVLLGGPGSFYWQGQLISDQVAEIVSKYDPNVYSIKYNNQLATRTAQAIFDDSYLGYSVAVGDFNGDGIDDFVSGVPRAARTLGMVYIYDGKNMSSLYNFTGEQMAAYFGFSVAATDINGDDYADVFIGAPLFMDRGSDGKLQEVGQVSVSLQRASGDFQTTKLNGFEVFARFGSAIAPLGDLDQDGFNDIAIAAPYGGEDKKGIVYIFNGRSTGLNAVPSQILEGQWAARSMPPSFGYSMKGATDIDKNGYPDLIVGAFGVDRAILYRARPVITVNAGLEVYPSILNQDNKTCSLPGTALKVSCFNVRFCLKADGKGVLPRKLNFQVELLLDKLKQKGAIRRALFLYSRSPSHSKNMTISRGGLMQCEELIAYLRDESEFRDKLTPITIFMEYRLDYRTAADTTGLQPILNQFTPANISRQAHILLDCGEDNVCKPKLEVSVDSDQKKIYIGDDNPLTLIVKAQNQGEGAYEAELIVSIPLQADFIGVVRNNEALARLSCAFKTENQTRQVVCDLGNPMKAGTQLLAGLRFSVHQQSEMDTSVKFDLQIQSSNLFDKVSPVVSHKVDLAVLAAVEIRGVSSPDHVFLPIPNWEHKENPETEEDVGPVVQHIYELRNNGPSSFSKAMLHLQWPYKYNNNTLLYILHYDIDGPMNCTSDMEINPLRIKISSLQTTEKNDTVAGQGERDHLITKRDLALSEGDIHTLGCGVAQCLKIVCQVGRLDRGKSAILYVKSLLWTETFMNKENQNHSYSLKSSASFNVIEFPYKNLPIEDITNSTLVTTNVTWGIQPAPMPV
T3 sequence (P26012 43-684 limits assumed): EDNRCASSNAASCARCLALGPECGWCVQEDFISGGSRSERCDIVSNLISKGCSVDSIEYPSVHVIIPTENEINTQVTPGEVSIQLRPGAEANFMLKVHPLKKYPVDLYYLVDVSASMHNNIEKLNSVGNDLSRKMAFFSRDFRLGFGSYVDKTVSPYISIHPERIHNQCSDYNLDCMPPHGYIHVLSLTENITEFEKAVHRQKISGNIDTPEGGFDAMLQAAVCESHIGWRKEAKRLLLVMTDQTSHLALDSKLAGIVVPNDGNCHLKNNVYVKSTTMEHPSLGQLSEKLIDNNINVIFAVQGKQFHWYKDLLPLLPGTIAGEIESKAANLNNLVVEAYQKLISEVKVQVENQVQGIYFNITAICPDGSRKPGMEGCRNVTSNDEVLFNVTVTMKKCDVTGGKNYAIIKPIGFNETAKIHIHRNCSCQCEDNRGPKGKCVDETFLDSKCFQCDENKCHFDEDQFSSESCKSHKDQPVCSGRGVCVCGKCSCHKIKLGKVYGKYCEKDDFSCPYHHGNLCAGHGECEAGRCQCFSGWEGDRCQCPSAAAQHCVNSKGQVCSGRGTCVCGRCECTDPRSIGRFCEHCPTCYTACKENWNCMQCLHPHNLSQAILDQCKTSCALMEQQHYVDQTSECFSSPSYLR
The assay is described as above. Format: biochemical. On the procedure: as §1, §2

Assay [4] deals with Normal human lung fibroblasts. Description: αSMA imaging, TGFβ-induced αSMA expression. Format: cell-based. To be noted: TGFβ 5 ng/mL, pre-treated 30 minutes, MK-0429 (10 µM) or SB-525334 (10 μM), 48 hours. On the procedure: αSMA imaging. Primary cells (passage 3-5) were grown on Cell carrier Ultra, collagen Type 1 coated 96-well plates (Perkin Elmer, #6055700) at a density of 25,000 cells/well. Once the cells adhere, they were starved in serum free media for 24 hours followed by addition of treatments, i.e., 5 ng/mL TGFβ (Biolegend #580702)±inhibitors. Cells were pre-treated with inhibitors for 30 minutes prior to the addition of TGFβ stimulation. 48 hours post treatment, the cells were fixed in 4% methanol free paraformaldehyde (ThermoFisher Scientific #28908) for 20 minutes at room temperature and incubated with anti-alpha smooth muscle Actin antibody (Abcam #ab7817) at 1:4000 overnight at 4° C. Following primary antibody incubation, cells were incubated with Goat anti-mouse secondary antibody (ThermoFisher Scientific #A32723) at 1:500 and Hoechst (ThermoFisher Scientific #62249) at 1:1000 for one hour at RT. The fixed and stained cells were images for immunofluorescence on Perkin Elmer's Opera Phenix high content Imager.

T2 sequence (P06756 31-992 limits assumed): as the sequence (P06756 31-992 limits assumed) above
T2 sequence (P18564 22-709 limits assumed): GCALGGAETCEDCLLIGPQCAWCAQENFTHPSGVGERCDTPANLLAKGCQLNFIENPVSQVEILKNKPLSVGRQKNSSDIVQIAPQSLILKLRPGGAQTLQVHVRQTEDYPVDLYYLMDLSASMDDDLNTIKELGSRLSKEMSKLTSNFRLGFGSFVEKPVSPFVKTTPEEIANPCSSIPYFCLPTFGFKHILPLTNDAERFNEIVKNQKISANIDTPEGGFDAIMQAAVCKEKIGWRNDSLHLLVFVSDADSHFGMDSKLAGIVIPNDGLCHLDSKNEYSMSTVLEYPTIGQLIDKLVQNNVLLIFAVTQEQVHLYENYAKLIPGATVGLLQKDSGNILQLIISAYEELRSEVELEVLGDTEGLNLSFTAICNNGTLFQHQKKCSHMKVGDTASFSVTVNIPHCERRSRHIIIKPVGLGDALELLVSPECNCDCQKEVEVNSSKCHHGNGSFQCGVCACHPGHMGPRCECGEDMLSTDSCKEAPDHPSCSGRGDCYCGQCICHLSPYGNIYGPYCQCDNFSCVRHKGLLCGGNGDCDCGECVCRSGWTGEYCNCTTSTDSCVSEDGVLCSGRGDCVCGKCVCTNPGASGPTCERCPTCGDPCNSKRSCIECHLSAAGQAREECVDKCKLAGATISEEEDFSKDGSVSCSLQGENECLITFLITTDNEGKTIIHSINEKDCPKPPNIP
T1 sequence (P43406 31-1044): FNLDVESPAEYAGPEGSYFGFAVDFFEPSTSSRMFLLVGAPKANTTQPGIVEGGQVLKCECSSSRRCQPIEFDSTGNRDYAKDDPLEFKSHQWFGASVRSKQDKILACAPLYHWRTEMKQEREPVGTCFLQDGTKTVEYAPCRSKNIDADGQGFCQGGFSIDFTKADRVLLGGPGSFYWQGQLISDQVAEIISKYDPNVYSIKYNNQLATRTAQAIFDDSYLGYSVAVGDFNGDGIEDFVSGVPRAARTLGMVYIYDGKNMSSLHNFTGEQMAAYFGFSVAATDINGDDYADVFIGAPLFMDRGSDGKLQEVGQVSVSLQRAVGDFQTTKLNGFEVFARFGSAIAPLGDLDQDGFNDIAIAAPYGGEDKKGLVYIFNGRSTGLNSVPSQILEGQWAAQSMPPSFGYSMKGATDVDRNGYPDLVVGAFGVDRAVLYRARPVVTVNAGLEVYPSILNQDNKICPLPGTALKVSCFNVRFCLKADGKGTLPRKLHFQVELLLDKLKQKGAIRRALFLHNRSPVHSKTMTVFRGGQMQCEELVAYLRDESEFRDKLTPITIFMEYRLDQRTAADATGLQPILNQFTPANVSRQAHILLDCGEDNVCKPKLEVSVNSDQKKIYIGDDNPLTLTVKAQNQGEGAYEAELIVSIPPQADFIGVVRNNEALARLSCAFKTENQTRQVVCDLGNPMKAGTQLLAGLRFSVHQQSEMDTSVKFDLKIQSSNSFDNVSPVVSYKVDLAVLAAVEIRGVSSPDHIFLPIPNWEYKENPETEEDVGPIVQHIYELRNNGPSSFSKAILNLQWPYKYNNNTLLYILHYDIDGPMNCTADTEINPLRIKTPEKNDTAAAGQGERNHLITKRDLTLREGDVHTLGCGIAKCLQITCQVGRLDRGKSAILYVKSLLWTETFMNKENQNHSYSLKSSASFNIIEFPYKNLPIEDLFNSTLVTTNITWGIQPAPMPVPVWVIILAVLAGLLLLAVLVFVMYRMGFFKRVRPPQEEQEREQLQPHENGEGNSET
T1 sequence (O70309 24-798): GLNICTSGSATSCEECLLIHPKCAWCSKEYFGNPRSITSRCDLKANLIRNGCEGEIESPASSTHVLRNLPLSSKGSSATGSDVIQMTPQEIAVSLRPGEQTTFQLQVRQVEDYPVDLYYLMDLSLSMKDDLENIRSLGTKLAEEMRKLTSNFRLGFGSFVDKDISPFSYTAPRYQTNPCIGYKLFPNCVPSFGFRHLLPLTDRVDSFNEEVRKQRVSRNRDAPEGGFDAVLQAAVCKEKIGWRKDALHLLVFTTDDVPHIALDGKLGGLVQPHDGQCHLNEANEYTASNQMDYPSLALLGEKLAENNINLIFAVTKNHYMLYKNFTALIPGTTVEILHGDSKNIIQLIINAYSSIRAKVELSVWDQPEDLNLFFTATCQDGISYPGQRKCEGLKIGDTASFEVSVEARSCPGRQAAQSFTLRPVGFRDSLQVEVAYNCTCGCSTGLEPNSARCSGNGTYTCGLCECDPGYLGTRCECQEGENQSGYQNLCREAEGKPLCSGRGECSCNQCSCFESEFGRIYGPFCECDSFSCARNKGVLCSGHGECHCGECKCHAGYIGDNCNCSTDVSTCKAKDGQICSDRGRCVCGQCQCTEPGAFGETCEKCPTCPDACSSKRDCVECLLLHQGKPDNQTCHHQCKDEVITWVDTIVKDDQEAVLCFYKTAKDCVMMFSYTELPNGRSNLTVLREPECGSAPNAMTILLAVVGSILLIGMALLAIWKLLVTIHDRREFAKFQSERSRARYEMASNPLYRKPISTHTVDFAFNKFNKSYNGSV

Take `COc1ccc([C@H](CC(=O)O)N2CCN(CCCc3ccc4c(n3)NCCC4)C2=O)cn1` [MK-0429, (3S)-3-(6-methoxypyridin-3-yl)-3-[2-oxo-3-[3-(5,6,7,8-tetrahydro-1,8-naphthyridin-2-yl)propyl]imidazolidin-1-yl]propanoic acid]: in assay [1], the “cell adhesion of mouse αvβ5 on a vitronectin matrix” value was “decreased”. Besides, the 50% inhibitory concentration (IC50) amounted to 3.8 nM in assay [2] (FIG. 3D, curve-fitted, read-out: IC50 against human αvβ6, AlphaLISA); 0.5 nM in assay [2] (Table 11, read-out: IC50 Human integrin AlphaLISA assays hαvβ6); 58.3 nM in assay [3] (FIG. 3D, curve-fitted, read-out: IC50 against human αvβ1 (as printed, fifth integrin listed), AlphaLISA); 3.1 nM in assay [3] (Table 11, read-out: IC50 Human integrin AlphaLISA assays hαvβ8). In assay [4], the “αSMA intensity and the percentage of stimulated cells following TGFβ treatment” value is “significantly reduced”.

The values above are taken from patent publication US20250313635A1, “ANTI-INTEGRIN ANTIBODIES AND USES THEREOF” (Merck Sharp & Dohme LLC, priority 2022, published 2025).
